We go through 31 compounds from patent US20170044104A1, “NEW PESTICIDAL COMPOUNDS AND USES” (BAYER CROPSCIENCE AG, priority 2013, published 2017).

In test [1] the test system is Nippostrongylus brasiliensis. Briefly: Nippostrongylus brasiliensis (NIPOBR) assay, acetylcholine esterase readout. The conditions noted are these: 10 ppm (10 μg/ml), adult worms, read-out: activity (reduction of AChE compared to negative control). As for the experimental part: Adult Nippostrongylus brasiliensis were washed with saline buffer containing 100 U/ml penicillin, 0.1 mg/ml streptomycin and 2.5 μg/ml amphotericin B. Test compounds were dissolved in DMSO and worms were incubated in medium in a final concentration of 10 μg/ml (10 ppm). An aliquot of the medium was used to determine the acetylcholine esterase activity in comparison to a negative control. The principle of measuring acetylcholine esterase as readout for anthelmintic activity was described in Rapson et al (1986) and Rapson et al (1987).

For test [2], the system named is Haemonchus contortus. Briefly: Haemonchus contortus (HAEMCO) larval mortality assay. As to conditions: 120 h; for mortality at 20 ppm: application rate 20 ppm, after 5 days, read-out: activity (percentage of larval mortality); for Emax at 0.8 ppm / Emax at 4 ppm / Emax at 20 ppm: comparative test, 5 dat, read-out: % Efficacy. As for the experimental part:
(§1) Solvent: dimethyl sulfoxide
(§2) To produce a suitable preparation of active compound, 10 mg of active compound are dissolved in 0.5 ml solvent, and the concentrate is diluted with “Ringer's solution” to the desired concentration.
Approximately 40 larvae of the red stomach worm (Haemonchus contortus) are transferred into a test tube containing compound solution.
After 5 days percentage of larval mortality are recorded. 100% efficacy means all larvae are killed, 0% efficacy means no larvae are killed.

In test [3] the test system is Cooperia curticei. The test can be described thus: Cooperia curticei (COOPCU) larval mortality assay. As to conditions: 120 h, after 5 days, read-out: activity (percentage of larval mortality); for mortality at 20 ppm: application rate 20 ppm. Here is the method: as §1, §2
Approximately 40 nematode larvae (Cooperia curticei) are transferred into a test tube containing the compound solution.
After 5 days percentage of larval mortality is recorded. 100% efficacy means all larvae are killed; 0% efficacy means no larvae are killed.

Test [4] deals with Meloidogyne incognita. The test can be described thus: Meloidogyne incognita (MELGIN) gall formation assay. The format is in vivo. The conditions noted are these: 336 h, application rate 20 ppm, after 14 days, salad seedlings, read-out: nematicidal activity (percentage of gall formation). Here is the method: Solvent: 125.0 parts by weight of acetone
To produce a suitable preparation of active compound, 1 part by weight of active compound is mixed with the stated amount of solvent, and the concentrate is diluted with water to the desired concentration.
Vessels are filled with sand, a solution of the active ingredient, a suspension containing eggs and larvae of the southern root-knot nematode (Meloidogyne incognita) and salad seeds. The salad seeds germinate and the seedlings grow. Galls develop in the roots.
After 14 days the nematicidal activity is determined on the basis of the percentage of gall formation. 100% means no galls were found and 0% means the number of galls found on the roots of the treated plants was equal to that in untreated control plants.

On to `O=C(NCCc1cccc(-c2ccc(OCC(F)(F)F)nc2)c1)c1ccccc1C(F)(F)F` [Example 1-1], for which, in test [1], the inhibition at 10 ppm is at least 60%. The mortality at 20 ppm in test [2] and in test [3] was 80% throughout.
With `O=C(NCCc1cccc(-c2ccc(Cl)nc2)c1)c1ccccc1C(F)(F)F` [Example 1-9], in test [1], the inhibition at 10 ppm is at least 60%. For the same compound, the mortality (usually the share of the test organisms that died) at 20 ppm in test [3] is 100%.
Take `O=C(NCCc1ccc(-c2cncc(Cl)c2)cc1)c1cccnc1C(F)(F)F` [Example 1-16]: the pest or weed control at 20 ppm in test [4] came out at 90%. In addition, the figures for the mortality at 20 ppm in test [2] and in test [3] were 80% and 100%, respectively.
On to `O=C(NCCc1ccc(-c2ccc(C(F)(F)F)nc2)cc1)c1cccnc1C(F)(F)F` [Example 1-19], for which the pest or weed control at 20 ppm in test [4] came out at 90%. Further, the mortality at 20 ppm in test [3] was 100%.
In the case of `O=C(NCCc1ccc(-c2cncc(F)c2)cc1)c1cccnc1C(F)(F)F` [Example 1-20], in test [4], the pest or weed control at 20 ppm amounted to 90%. Moreover, the mortality at 20 ppm in test [2] was determined as 80%; in test [3], 100%.
`Cn1cc(-c2ccc(CCNC(=O)c3cccnc3C(F)(F)F)cc2)cn1` [Example 1-24]: in test [4], the pest or weed control at 20 ppm turned out to be 90%. Moreover, the mortality at 20 ppm in test [3] was 90%.
Take `O=C(NCCc1ccc(-c2cccnc2)cc1Cl)c1ccccc1C(F)(F)F` [Example 1-33]: the inhibition at 10 ppm in test [1] was at least 60%. Moreover, the mortality at 20 ppm in test [2] and in test [3] was 100% throughout.
Consider `O=C(NCCc1ccc(-c2ccccn2)cc1Cl)c1ccccc1C(F)(F)F` [Example 1-39], for which the pest or weed control at 20 ppm in test [4] is 100%. For the same compound, the mortality at 20 ppm in test [2] and in test [3] was 100% throughout.
In the case of `Cc1ncccc1-c1ccc(CCNC(=O)c2ccccc2C(F)(F)F)c(Cl)c1` [Example 1-42], the pest or weed control at 20 ppm in test [4] amounted to 90%. Also, the mortality at 20 ppm in test [2] and in test [3] was 100% throughout.
For the compound `O=C(NCCc1ccc(-c2cncc(Cl)c2)cc1Cl)c1ccccc1C(F)(F)F` [Example 1-45, N-{2-[2-chloro-4-(5-chloropyridin-3-yl)phenyl]ethyl}-2-(trifluoromethyl)benzamide], in test [1], the inhibition at 10 ppm was at least 60%. Further, in test [2], the mortality at 20 ppm was 100%, the Emax at 0.8 ppm was determined as 100%, the Emax at 4 ppm was 100% and the Emax at 20 ppm is 100%. Also, in test [3], the mortality at 20 ppm stood at 100%.
Consider `Cn1cc(-c2ccc(CCNC(=O)c3ccccc3C(F)(F)F)c(Cl)c2)cn1` [Example 1-47], for which the pest or weed control at 20 ppm in test [4] amounted to 100%. Besides, in test [2], the mortality at 20 ppm worked out at 100%, the Emax at 0.8 ppm was determined as 80%, the Emax at 4 ppm was determined as 100% and the Emax at 20 ppm came out at 100%. In addition, the mortality at 20 ppm in test [3] stood at 100%.
As for `O=C(NCCc1ccc(-c2ccc(Cl)nc2Cl)cc1Cl)c1ccccc1C(F)(F)F` [Example 1-49], the inhibition at 10 ppm in test [1] is at least 60%. Also, the mortality at 20 ppm in test [2] is 90%; in test [3], 100%.
For the compound `O=C(NCCc1ccc(-c2cncc(Cl)c2)cc1)c1ccccc1C(F)(F)F` [Example 1-53], in test [1], the inhibition at 10 ppm was at least 60%. Besides, the mortality at 20 ppm in test [2] and in test [3] was 100% each time.
With `O=C(NCCc1ccc(-c2ccc(Cl)nc2)cc1Cl)c1ccccc1C(F)(F)F` [Example 1-66], the pest or weed control at 20 ppm in test [4] was found to be 90%. In addition, the mortality at 20 ppm in test [2] and in test [3] was 100% each time.
With `O=C(NCC(F)c1ccc(-c2cccnc2Cl)cc1Cl)c1ccccc1C(F)(F)F` (stereo not shown) [Example 1-75], the inhibition at 10 ppm in test [1] is at least 60%. Further, the mortality at 20 ppm in test [2] and in test [3] was 100% throughout.
Turning to `O=C(NCC(F)c1ccc(-c2cccnc2Cl)cc1Cl)c1cccnc1C(F)(F)F` (stereo not shown) [Example 1-80], the pest or weed control at 20 ppm in test [4] is 90%. In addition, the mortality at 20 ppm in test [2] and in test [3] was 100% each time.
`O=C(NCC(F)c1ccc(-c2ccnc(F)c2)cc1Cl)c1cccnc1C(F)(F)F` (stereo not shown) [Example 1-81]: the pest or weed control at 20 ppm in test [4] was 100%. For the same compound, the mortality at 20 ppm in test [2] and in test [3] was 100% throughout.
As for `O=C(NCC(F)c1ccc(-c2ccc(Cl)nc2)cc1Cl)c1nccnc1C(F)(F)F` (stereo not shown) [Example 1-85], the pest or weed control at 20 ppm in test [4] came out at 100%. Also, the mortality at 20 ppm in test [2] and in test [3] was 100% throughout.
`O=C(NCC(F)c1ccc(-c2ccc(Cl)nc2)cc1Cl)c1cccnc1C(F)(F)F` (stereo not shown) [Example 1-86]: the pest or weed control at 20 ppm in test [4] was found to be 100%. Besides, the mortality at 20 ppm in test [2] and in test [3] was 100% each time.
Turning to `COc1ccc(-c2ccc(C(F)(F)CNC(=O)c3ccccc3C(F)(F)F)c(Cl)c2)cn1` [Example 1-90], in test [1], the inhibition at 10 ppm is at least 60%. Further, the mortality at 20 ppm in test [2] and in test [3] was 100% each time.
For the compound `O=C(NCC(F)(F)c1ccc(-c2cc(Cl)nc(Cl)c2)cc1Cl)c1ccccc1C(F)(F)F` [Example 1-92], the inhibition at 10 ppm in test [1] was at least 60%. Besides, the mortality at 20 ppm in test [2] and in test [3] was 100% each time.
With `O=C(NCC(F)(F)c1ccc(-c2ccc(C(F)(F)F)nc2)cc1Cl)c1ccccc1C(F)(F)F` [Example 1-94], the pest or weed control at 20 ppm in test [4] was 100%. Also, the mortality at 20 ppm in test [2] and in test [3] was 100% in each case.
In the case of `O=C(NCC(F)(F)c1ccc(-c2cncc(F)c2)cc1Cl)c1ccccc1C(F)(F)F` [Example 1-96], the inhibition at 10 ppm in test [1] was at least 60%. For the same compound, the mortality at 20 ppm in test [2] and in test [3] was 100% throughout.
In the case of `O=C(NCC(F)(F)c1ccc(-c2ccc(F)nc2)cc1Cl)c1cccnc1C(F)(F)F` [Example 1-104], the pest or weed control at 20 ppm in test [4] was 100%. The mortality at 20 ppm in test [2] came to 90%. Moreover, the mortality at 4 ppm in test [3] (application rate 4 ppm) is 100%.
`O=C(NCC(F)(F)c1ccc(-c2cncc(Cl)c2)cc1C(F)(F)F)c1ccccc1C(F)(F)F` [Example 1-120]: in test [4], the pest or weed control at 20 ppm is 100%. The mortality at 20 ppm in test [2] and in test [3] was 100% each time.
With `O=C(NCC(F)(F)c1ccc(-c2ccc(Cl)nc2)cc1C(F)(F)F)c1ccccc1C(F)(F)F` [Example 1-126], in test [4], the pest or weed control at 20 ppm was determined as 90%. For the same compound, the mortality at 20 ppm in test [2] and in test [3] was 100% in each case.
Regarding `O=C(NCC(F)(F)c1ccc(-c2ccc(F)nc2)cc1C(F)(F)F)c1ccccc1C(F)(F)F` [Example 1-128], the pest or weed control at 20 ppm in test [4] amounted to 100%. Also, the mortality at 20 ppm in test [2] and in test [3] was 100% throughout.
As for `CC(F)(CNC(=O)c1cccnc1C(F)(F)F)c1ccc(-c2ccc(F)nc2)cc1Cl` (stereo not shown) [Example 1-129], in test [4], the pest or weed control at 20 ppm amounted to 100%.
The same measure, in the same setting: as for `CC(F)(CNC(=O)c1ccccc1C(F)(F)F)c1ccc(-c2ccc(F)nc2)cc1Cl` (stereo not shown) [Example 1-130, N-{2-[2-chloro-4-(6-fluoropyridin-3-yl)phenyl]-2-fluoropropyl}-2-(trifluoromethyl) benzamide], the figure is 100%.
On the same count and under the same terms, the value for `Cc1cc(-c2ccc(F)nc2)ccc1C(F)(F)CNC(=O)c1ccccc1C(F)(F)F` [Example 1-136] was 90%.
Same read-out and setting: as for `O=C(NCC(F)(F)c1ccc(-c2ccc(F)nc2)cc1C(F)(F)F)c1cccnc1C(F)(F)F` [Example 1-140], the figure is 90%.
